Patent US6436966B1, “Adenosine A3 receptor antagonists” (Takeda Chemical Ind., Ltd., priority 1997, dated 2002)
Counter-ions that a name gives are not always drawn.

Molecular target: T1, human adenosine A3 receptor (Homo sapiens, UniProt P0DMS8)
T1 construct: expressed in transfected cells; membrane fraction used
T1 sequence (P0DMS8 1-318): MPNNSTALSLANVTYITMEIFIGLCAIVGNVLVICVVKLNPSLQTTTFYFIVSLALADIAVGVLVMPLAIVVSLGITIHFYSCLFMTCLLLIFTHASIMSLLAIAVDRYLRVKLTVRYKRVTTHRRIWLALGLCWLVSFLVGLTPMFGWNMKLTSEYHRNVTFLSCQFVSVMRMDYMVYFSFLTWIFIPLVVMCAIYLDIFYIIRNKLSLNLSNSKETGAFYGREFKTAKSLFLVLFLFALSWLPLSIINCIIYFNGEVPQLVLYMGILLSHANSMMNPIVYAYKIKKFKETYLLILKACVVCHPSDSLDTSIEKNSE
Test: Binding assay with adenosine A3 receptor: [3H]-NECA binding to membranes of A3AR/CHO cells
Conditions: 10 nM [3H]-NECA, 100 μg/ml A3AR/CHO cell membranes, 1 hour at room temperature; read-out: IC50 (concentration that inhibits 50% specific binding of [3H]-NECA to the membrane)
Method: (1) Cloning of Human Adenosine A3 Receptor
Cloning of the human adenosine A3 receptor gene was carried out by the polymerase chain reaction (PCR) from human brain cDNA. Using 1 ng of brain cDNA (Quick-Clone cDNA, TOYOBO, Osaka) as template, PCR was performed in DNA Thermal Cycler 480 (Perkin Elmer, Foster, Calif.) (reaction conditions: 35 cycles of 1 min at 95° C., 1 min at 66° C., and 2 min at 75° C.) by mixing primers (50 pmol each), 5′-[…]-3′ [Sequence No. 1] and 5′-[…]-3′ [Sequence No. 2], which were designed referring to nucleotide sequence of adenosine A3 receptor gene reported by Salvatore et. al., (Proc. Natl. Acad. Sci. U.S.A., 90:10365-10369, 1993) and TaKaRa LA PCR Kit Ver.2 (TaKaRa Shuzo Co. Ltd., Kyoto) in a Thermal cycler 480 (Parkin Elmer). The PCR product was electrophoresed and 1.0 kb DNA fragment was recovered. The DNA fragment encoding adenosine A3 receptor was cloned using Original TA Cloning Kit (FUNAKOSHI, Tokyo).
(3) Transfection of Adenosine A3 Receptor Expression Plasmid into CHO (dhfr^−) and the Expression
CHO (dhfr^−) cells were grown on Ham's F-12 medium (Nihon Selyaku, Tokyo) supplement with 10% fetal bovine serum (Life Tech Oriental; Life Technologies, Inc., Rockville, Md., USA) in a 750 ml Tissue culture flask (Becton Dickinson, Mt. View, Calif.). The growing cells were treated with 0.5 g/l trypsin-0.2 g/l EDTA (Life Technologies, Inc., Rockville, Md., USA) to harvest, washed with PBS (Life Technologies, Inc., Rockville, Md., USA), centrifugated at 1000 rpm for 5 min, and suspended in PBS. […] The cells were incubated in assay buffer I (HBSS (Wako chemicals, Osaka) containing 0.1% BSA, 0.25 mM PMSF, 1 μg/ml pepstatin, and 20 μg/ml leupeptin) to which was added 50 pM ^125I-AB-MECA (Amersham) as ligand, for 1 hour, and washed with assay buffer I. The radioactivity associated with the:.cell was measured in a γ-counter to select A3AR/CHO cells which specifically bind to the ligand. […]

| SMILES | IC50 |
| --- | --- |
| COc1ccc(-c2nc(NC(C)=O)sc2-c2ccncc2)cc1 [13-89] | 0.55 nM |
| COc1ccc(-c2nc(NC(=O)C(C)C)sc2-c2cccnc2)cc1 [13-92] | 0.7 nM |
| COc1ccc(-c2nc(NC(C)=O)sc2-c2cccnc2)cc1 [Reference Example Compound 10, N-[4-(4-Methoxyphenyl)-5-(3-pyridyl)-1,3-thiazol-2-yl]acetamide] | 0.27 nM |

Tested on: not given
Test: not given
Conditions: not given

| SMILES | melting point |
| --- | --- |
| COc1ccc(-c2nc(NC(C)=O)sc2-c2ccncc2)cc1 (as salt: HCl) [13-89] | 275 to 278 °C |
| COc1ccc(-c2nc(NC(=O)C(C)C)sc2-c2cccnc2)cc1 [13-92] | 213 to 216 °C |
| CC(C)(C)c1ccc(-c2sc(N)nc2-c2ccncc2)cc1 [Example Compound 4-1, [5-[4-(1,1-dimethylethyl)phenyl]-4-(4-pyridyl)-1,3-thiazol-2-yl]amine] | 275 to 277 °C |
| Cc1cc(C)cc(-c2sc(N)nc2-c2ccncc2)c1 [Example Compound 4-2, [5-(3,5-dimethylphenyl)-4-(4-pyridyl)-1,3-thiazol-2-yl]amine] | 262 to 263 °C |
| CC(=O)Nc1nc(-c2ccncc2)c(-c2ccc(C(C)(C)C)cc2)s1 [Example Compound 5-1, N-[5-[4-(1,1-dimethylethyl)phenyl]-4-(4-pyridyl)-1,3-thiazol-2-yl]acetamide] | 245 to 246 °C |
| CC(=O)Nc1nc(-c2ccncc2)c(-c2cc(C)cc(C)c2)s1 [Example Compound 5-2, N-[5-(3,5-dimethylphenyl)-4-(4-pyridyl)-1,3-thiazol-2-yl]acetamide] | 304 to 308 °C |
